Entries after “also recorded” stand apart in the source; their conditions may differ.
What was measured:
[1] = system: primary human airway smooth muscle (ASM) cells; test: Contractile force screening (CFS), basal ASM cell contraction (strain energy); format: cell-based; conditions: for strain energy (ASM contraction): compared to pravastatin; for basal ASM cell contraction: FIG. 1A/1D; for reversibility of force inhibitory effect: media without Pit after treatment, FIG. 10D
Method: Primary human airway smooth muscle (ASM) cells derived from both non-asthmatic and asthmatic donors were obtained from the Gift of Hope Organ and Tissue Donor Network. These cells have been well-characterized previously (see for example H. Yoshie et al., Biophys J (2018) 114(9):2194-99). All measurements were performed using cells at passage 5-8 from three non-asthmatic donors. Cells were grown on either 10% serum-containing F12 complete media, or serum-deprived media supplemented with insulin, transferrin, and selenium (Corning, Tewksbury, Mass.). Contractile Force Screening: Human ASM cells were grown to confluence in 96-well plates on custom NuSilTM 8100 elastic substrates (Avantor, Inc., Radnor, Pa.) (R. […] Fluorescent beads (diameter 400 nm) were embedded in the substrate surface to enable traction force calculations based on their displacements. To measure fractions, an inverted epi-fluorescence microscope (DMI 6000B, Leica Inc., Germany) equipped with a heated chamber (37° C.), a monochrome camera ([…]), and a motorized stage was used. Spatial images were recorded of substrate-embedded fluorescent beads at 10× magnification. Based on the bead displacements (resolution 15 μm) relative to a cell-free model, together with knowledge of substrate stiffness and thickness, fractions were computed using the approach of Fourier Transform Traction Cytometry ([…] et al., Pharmacol Ther (2014) 143(1):87-110), modified to the case of cell monolayers ([…] et al., Cell (2007) 129(3):511-22). From each fraction map, the root-mean-squared traction (RMST) value and strain energy were calculated and reported as a measure of normal contraction in the monolayer. On a well-by-well basis, the ratio of the strain energy after vs. before treatment was computed, and all values of a given treatment group were normalized to the mean of each treatment group. Comparison of Statins: […] MA is the immediate product of HMGCR action on HMB-CoA, so addition of MA would reverse the effect of statin inhibition of HMGCR. […] Simvastatin-acid (SA), atorvastatin, pravastatin, and pitavastatin were examined with CFS to determine the dose response of the ASM relaxation effect. […] From each ASM force map, the strain energy (i.e., the energy that is imparted to the substrate by the contractile cells, in pJ) was computed, to represent the average cellular contraction.

[2] = system: F-actin; test: F-actin expression, immunostaining; format: cell-based, human; conditions: 24 hrs; for basal F-actin expression: 1 μM, FIG. 15A/15B
Method: Non-asthmatic primary human ASM cells were treated with either vehicle or pitavastatin (1 μM) for 24 hours. Cells were then immuno-stained for F-actin expression. […] Cell lysates were analyzed by western blot for total ROCK-1, total ROCK-2, total MLC-2, and phosphorylated MLC-2. As shown in FIGS. 15C and 15D, pitavastatin reduced the total expression of ROCK-1, ROCK-2, and MLC-2 (total and phosphorylated).
Non-asthmatic primary human ASM cells were co-treated with 1 μM pitavastatin (Pit), Pit with 10 μM GGPP, or Pit with 10 μM GGPP plus 100 μM MA for 24 hrs.

[3] = system: primary human airway smooth muscle (ASM) cells; test: Contractile force screening (CFS), basal ASM cell contraction (strain energy); format: cell-based; conditions: donors D1-D6, FIG. 11A
[4] = system: myosin light chain-2 (MLC-2) phosphorylation; test: Thrombin-induced MLC-2 phosphorylation, western blot; format: cell-based, human; conditions: 1 or 10 μM, 24 hrs; thrombin 2 U, 30 min; FIG. 5B
Method: Antibodies for western blot analysis against total and phospho-MLC2 were obtained from Santa Cruz Biotechnology and Cell Signaling Technology, respectively. Antibodies for pROCK1, total ROCK1, and GAPDH were obtained from Abcam. Pitavastatin was obtained from Santa Cruz Biotechnology.
Human ASM cells were treated with pitavastatin (1 or 10 μM) for 24 hours, then treated with thrombin (2 U, 30 min). As depicted in FIG. 5B, pitavastatin (1 or 10 μM) inhibited thrombin-induced MLC2 phosphorylation.

[5] = 1 μM, serum-deprived media, FIG. 10B

**Q.** For O=C(O)C[C@H](O)C[C@H](O)/C=C/c1c(C2CC2)nc2ccccc2c1-c1ccc(F)cc1 [pitavastatin], which “inhibitory potency on ASM contraction, dose-response ranking” value ([1]; 0-10 μM, FIG. 1C, 1D) is on record?
**A.** most significant effect

**Q.** And the “strain energy (ASM contraction)” value ([1]; 0.4 μM, 24 hours, FIG. 1C)?
**A.** significant reduction in strain energy

**Q.** And the “basal ASM cell contraction” value ([1]; 1 μM, 24 hours)?
**A.** potently and significantly inhibits basal ASM contraction

**Q.** And the “basal ASM cell contraction” value ([1]; 1 μM, 24 hours, listed as Pitavastatin)?
**A.** more potent

**Q.** And the “relaxation effect at 24 hrs compared to simvastatin” value [1, 5]?
**A.** more significant at 24 hrs

**Q.** And the “relaxation effect at 24 hrs compared to simvastatin” value ([1]; 1 μM, serum-deprived media, FIG. 10B, listed as Pit)?
**A.** significantly more efficacious than Sim

**Q.** And the “ASM relaxation over time compared to simvastatin” value ([1]; 1 μM, all time points including 24 hours, with or without media starvation, FIG. 4C)?
**A.** greater ASM relaxation than simvastatin

**Q.** And the “reversibility of force inhibitory effect” value ([1]; 1 μM)?
**A.** reversible

**Q.** And the “reversibility of force inhibitory effect” value ([1]; 1 μM, listed as Pit)?
**A.** reversed

**Q.** And the “ASM contraction over time compared to control” value [1, 5]?
**A.** reduced ASM contraction time-dependently

**Q.** And the “strain energy (ASM contraction)” value ([1]; 2 and 10 μM, 24 hours, FIG. 1C)?
**A.** significantly (and further) reduce strain energy

**Q.** What about the “ASM contraction / ASM cell relaxation” value ([1]; FIG. 10A) of the same molecule?
**A.** inhibited ASM contraction

**Q.** And the “dose-dependent effect on ASM” value ([1]; primary ASM cells from three different human donors, FIG. 3)?
**A.** dose-dependently relax ASM

**Q.** What about the “potency on basal ASM contraction relative to simvastatin” value ([1]; same dose, 1 μM, 24 hours, FIG. 1D) of the same molecule?
**A.** more potent than simvastatin

**Q.** What about the “start of ASM relaxing effects” value ([1]; time-dependent effects, FIG. 4C) of the same molecule?
**A.** 4 h

**Q.** And the “reductions of F-actin expression and ASM contraction with GGPP and MA co-treatment” value ([2]; 1 μM Pit with 10 μM GGPP, or with 10 μM GGPP and 100 μM MA, FIG. 15B)?
**A.** abrogated

**Q.** And the “basal F-actin expression” value [2]?
**A.** significantly reduced

**Q.** And the “basal F-actin expression” value ([2]; listed as Pit)?
**A.** reduced F-actin expression; also recorded: significantly reduced

**Q.** And the “ASM contraction in asthmatic and non-asthmatic donor cells” value [3]?
**A.** dose-dependently inhibited ASM contraction; also recorded: inhibited ASM contraction dose-dependently

**Q.** What about the “thrombin-induced MLC2 phosphorylation” value [4] of the same molecule?
**A.** inhibits; also recorded: reduced MLC-2 phosphorylation
